Laboratory results from patent publication US20120328717A1, “PHARMACEUTICAL KIT FOR TREATING NEURONAL DAMAGES” (priority 2011, published 2012).

Tests used:
[1] = test system: middle cerebral artery occlusion (MCAO) animal models with ischemic strokes; experiment: Evaluation of brain edema (brain water content, wet-dry method) after MCAO; type: in vivo, Sprague-Dawley rats; conditions: Experiment 1; 48 hr after MCAO and reperfusion; 45 mg/kg MgSO4 i.v., 6 mg/kg nimesulide i.p.
Description: In the present experiments, middle cerebral artery occlusion (MCAO) known in the art was performed on SD rats to establish animal models with ischemic strokes by using occluding intra-luminal suture. The process for performing MCAO is briefly described as follows. A segment of 4-O nylon with blunted tip was inserted through the right internal carotid artery to occlude blood flow of middle cerebral artery (MCA). Laser Doppler flowmeter was used to monitor changes of cerebral blood flows in the MCA territory. […] Anesthetic time was limited to 20 minutes to minimize the influence of isoflurane on the outcome of MCAO. After recovery from anesthesia, rats without body asymmetry were regarded as failed MCAO models and excluded from further experiments. After MCAO was established for 90 min, intra-luminal occluder was removed to re-perfuse the brain. […] Herein, cerebral edema was determined by measuring the brain water content with the wet-dry method after MCAO was established for 48 hr. […] The difference of water content in ipsilateral and contralateral hemisphere (Δ% of water content) 48 hr after ischemia-reperfusion injury was evaluated with the wet-dry method.

[2] = test system: middle cerebral artery occlusion (MCAO) animal models with ischemic strokes; experiment: Evaluation of infarct volume by TTC staining after MCAO and reperfusion; type: in vivo, Sprague-Dawley rats; conditions: Experiment 1; MCAO 90 min, reperfusion 72 hr; single dose: 45 mg/kg MgSO4 i.v. after MCAO or 6 mg/kg nimesulide i.p. before reperfusion
Description: 150 Sprague-Dawley rats (SD rats) weighing 220-250 gm were purchased from the Laboratory Animal Center of National Chung Kung University. In the present experiments, middle cerebral artery occlusion (MCAO) known in the art was performed on SD rats to establish animal models with ischemic strokes by using occluding intra-luminal suture. The process for performing MCAO is briefly described as follows. A segment of 4-O nylon with blunted tip was inserted through the right internal carotid artery to occlude blood flow of middle cerebral artery (MCA). Laser Doppler flowmeter was used to monitor changes of cerebral blood flows in the MCA territory. […] Anesthetic time was limited to 20 minutes to minimize the influence of isoflurane on the outcome of MCAO. After recovery from anesthesia, rats without body asymmetry were regarded as failed MCAO models and excluded from further experiments. After MCAO was established for 90 min, intra-luminal occluder was removed to re-perfuse the brain. […] When SD rats in each group were treated with MCAO for 90 min and reperfusion for 72 hr, infarct volumes were evaluated by TTC staining.

Structure (SMILES)	post-ischemia brain edema (Δ% of water content, ipsilateral vs contralateral hemisphere) compared to SVe group [1]	infarct volume compared to SVe group [2]
O=S(=O)([O-])[O-].[Mg+2] [MgSO4]	cannot be Observed	a decrease of infarct volume was not observed
CS(=O)(=O)Nc1ccc([N+](=O)[O-])cc1Oc1ccccc1 [nimesulide, N-(4-Nitro-2-phenoxyphenyl)methane-sulfonamide]	cannot be Observed	no neuro-protective effect
